Data as given in patent publication US10022451B2, “Encapsulated agents and methods of making and using thereof” (University of Georgia Research Foundation, Inc., priority 2014, dated 2018).

Columns and labels:
[1] = Stability of P-RFRTs in PBS and at pH 2; assay type: physicochemical; settings: same concentration
[2] = in tetrahydrofuran; cited from earlier work

For “zinc hexadecafluoro-phthalocyanine [ZnF16Pc]”, the “Stability in PBS” value [1] is listed as “quickly precipitated out due to its poor solubility” and the ΦΔ [2] is listed as 0.85.
